# Experimental data taken from patent US6562584B1, “Bacterial strains for the production of 2-keto-L-gulonic acid” (priority 1998, dated 2003).
# System: strains NRRL B-30035, NRRL B-30037N, and NRRL B-30036
# Experiment: Antibiotic resistance by minimum inhibitory concentration (MIC), commercial "Pasco" system
# Format: cell-based
# Conditions: strains NRRL B-30035 (ADM 291-19), NRRL B-30037N (ADM 62A-12A), NRRL B-30036 (ADM 266-13B), based on physiologically attainable concentrations of antibiotic
# Source text: (6) Antibiotic resistance—sensitive to amikacin, augmentin (amoxicillin plus clavulonic acid), ampicillin, cefazolin, cefoxitin, ceftazidime, ceftiofur, cephalothin, enrofloxacin, florfenicol, gentamicin, imipenem, kanamycin, sarafloxicin, tetracycline, ticarcillin, and tilmicosin, but resistant to tribrissen ([…] plus sulfamethozole), as determined by minimum inhibitory concentration (MIC), based on physiologically attainable concentrations of antibiotic, employing the commercial “Pasco” system; and […]
row,Compound,Antibiotic resistance (sensitive / resistant) as determined by minimum inhibitory concentration (MIC)
1,NCC[C@H](O)C(=O)N[C@@H]1C[C@H](N)[C@@H](O[C@H]2O[C@H](CN)[C@@H](O)[C@H](O)[C@H]2O)[C@H](O)[C@H]1O[C@H]1O[C@H](CO)[C@@H](O)[C@H](N)[C@H]1O [amikacin],sensitive
2,CC1(C)S[C@@H]2[C@H](NC(=O)[C@H](N)c3ccccc3)C(=O)N2[C@H]1C(=O)O [ampicillin],sensitive
3,Cc1nnc(SCC2=C(C(=O)O)N3C(=O)[C@@H](NC(=O)Cn4cnnn4)[C@H]3SC2)s1 [cefazolin],sensitive
4,CO[C@@]1(NC(=O)Cc2cccs2)C(=O)N2C(C(=O)O)=C(COC(N)=O)CS[C@@H]21 [cefoxitin],sensitive
5,CC(C)(O/N=C(\C(=O)N[C@@H]1C(=O)N2C(C(=O)[O-])=C(C[n+]3ccccc3)CS[C@H]12)c1csc(N)n1)C(=O)O [ceftazidime],sensitive
6,CO/N=C(\C(=O)N[C@@H]1C(=O)N2C(C(=O)O)=C(CSC(=O)c3ccco3)CS[C@H]12)c1csc(N)n1 [ceftiofur],sensitive
7,CC(=O)OCC1=C(C(=O)O)N2C(=O)[C@@H](NC(=O)Cc3cccs3)[C@H]2SC1 [cephalothin],sensitive
8,CCN1CCN(c2cc3c(cc2F)c(=O)c(C(=O)O)cn3C2CC2)CC1 [enrofloxacin],sensitive
9,CS(=O)(=O)c1ccc([C@@H](O)[C@@H](CF)NC(=O)C(Cl)Cl)cc1 [florfenicol],sensitive
10,O=C(O)c1cn(-c2ccc(F)cc2)c2cc(N3CCNCC3)c(F)cc2c1=O [sarafloxicin],sensitive
11,CC1(C)S[C@@H]2[C@H](NC(=O)[C@H](C(=O)O)c3ccsc3)C(=O)N2[C@H]1C(=O)O [ticarcillin],sensitive
12,CC[C@H]1OC(=O)C[C@@H](O)[C@H](C)[C@@H](O[C@@H]2O[C@H](C)[C@@H](O)[C@H](N(C)C)[C@H]2O)[C@@H](CCN2C[C@H](C)C[C@H](C)C2)C[C@@H](C)C(=O)/C=C/C(C)=C/[C@@H]1CO[C@@H]1O[C@H](C)[C@@H](O)[C@@H](OC)[C@H]1OC [tilmicosin],sensitive
13,gentamicin,sensitive

# System: mouse astrogial cells
# Experiment: not given
# Conditions: Bishop et al., Nutrition Reviews 56:287-293 (1998); cited from earlier work
row,Compound,nerve growth factor synthesis
1,"O=C(O)c1cc(C(=O)O)c2c(n1)C(=O)C(=O)c1cc(C(=O)O)[nH]c1-2 [PQQ, 2,7,9-tricarboxy-1H-pyrrolo[2,3-f]quino-line-4,5-dione]",increases
